What was measured:
Test in all cases: area over the GR curve, 72 h; higher = more effect;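 further: Dye Drop or Deep Dye Drop imaging of viable cells in 384-well plates (Hoechst nuclei, LIVE/DEAD dye), nine half-log doses, GR normalized to DMSO controls and time-zero plates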
UACC812 = test system: UACC812
BT549 = test system: BT549
AU565 = test system: AU565
MCF10A = test system: MCF10A
PDX1258 = test system: PDX1258
PDXHCI002 = test system: PDXHCI002
BT474 = test system: BT474
SUM190PT = test system: SUM190PT
HCC202 = test system: HCC202
SUM44PE = test system: SUM44PE
SUM1315 = test system: SUM1315
HCC1395 = test system: HCC1395
HCC1143 = test system: HCC1143

Row | SMILES | area over the GR curve (UACC812) | area over the GR curve (BT549) | area over the GR curve (AU565) | area over the GR curve (MCF10A) | area over the GR curve (PDX1258) | area over the GR curve (PDXHCI002) | area over the GR curve (BT474) | area over the GR curve (SUM190PT) | area over the GR curve (HCC202) | area over the GR curve (SUM44PE) | area over the GR curve (SUM1315) | area over the GR curve (HCC1395) | area over the GR curve (HCC1143)
1 | CN(C)C(=O)c1cc2cnc(Nc3ccc(N4CCNCC4)cn3)nc2n1C1CCCC1 [LEE011/Ribociclib] (max 10 µM) | 0.642 GR | 0.0102 GR | 0.403 GR | 0.235 GR | -0.124 GR | 0.123 GR | 0.412 GR | 0.576 GR | 0.11 GR | 0.357 GR | 0.35 GR | 0.323 GR | 0.27 GR
2 | Cc1nc(Nc2ncc(C(=O)Nc3c(C)cccc3Cl)s2)cc(N2CCN(CCO)CC2)n1 [Dasatinib] (max 10 µM) | 1.15 GR | 0.237 GR | 0.155 GR | 0.339 GR | 0.714 GR | 0.376 GR | 0.695 GR | 0.32 GR | 0.779 GR | 0.128 GR | 0.74 GR | 0.598 GR | 0.447 GR
3 | CO[C@@H](C)Cn1c(=O)n(C)c2cnc3ccc(-c4cncc(C(C)(C)O)c4)cc3c21 (max 10 µM) | 1.03 GR | 0.765 GR | 0.793 GR | 0.447 GR | 0.557 GR | 0.228 GR | 1.15 GR | 1.16 GR | 0.726 GR | 1.02 GR | 0.693 GR | 0.618 GR | 0.446 GR
4 | COc1cccc2c1C(=O)c1c(O)c3c(c(O)c1C2=O)C[C@@](O)(C(=O)CO)C[C@@H]3O[C@H]1C[C@H](N)[C@H](O)[C@H](C)O1 [Doxorubicin] (max 3.162 µM) | 1.18 GR | 0.76 GR | 0.604 GR | 0.655 GR | 0.754 GR | 0.969 GR | 0.578 GR | 0.403 GR | 0.358 GR | 0.629 GR | 0.513 GR | 0.637 GR | 0.718 GR
5 | CC(=O)c1c(C)c2cnc(Nc3ccc(N4CCNCC4)cn3)nc2n(C2CCCC2)c1=O (max 3.162 µM) | 0.609 GR | -0.0495 GR | 0.296 GR | 0.188 GR | -0.0777 GR | 0.273 GR | 0.194 GR | 0.319 GR | 0.135 GR | 0.216 GR | 0.33 GR | 0.274 GR | 0.255 GR
6 | Cc1nn(C)c(COc2ccc(N3CCN(S(=O)(=O)N(C)C)CC3)cc2)c1-c1cccc2c(CCCOc3cccc4ccccc34)c(C(=O)O)n(CCN3CCOCC3)c12 (max 10 µM) | 0.0654 GR | 0.0083 GR | -0.0201 GR | 0.0018 GR | -0.0034 GR | -0.05 GR | -0.0275 GR | -0.063 GR | -0.005 GR | 0.14 GR | -0.0531 GR | -0.0037 GR | 0.064 GR
7 | CN(C)C/C=C/C(=O)Nc1ccc(C(=O)Nc2cccc(Nc3cc(-c4c[nH]c5ccccc45)ncn3)c2)cc1 [THZ-P1-2] (max 10 µM) | 0.0711 GR | 0.124 GR | 0.194 GR | 0.13 GR | 0.572 GR | 0.153 GR | -0.079 GR | 0.478 GR | 0.0733 GR | 0.619 GR | 0.0029 GR | 0.442 GR | 0.216 GR
8 | CN1CCN(CCOc2cc(OC3CCOCC3)c3c(Nc4c(Cl)ccc5c4OCO5)ncnc3c2)CC1 [Saracatinib/AZD0530] (max 10 µM) | 0.875 GR | 0.0348 GR | 0.119 GR | 0.125 GR | 0.275 GR | 0.512 GR | 0.303 GR | 0.181 GR | 0.396 GR | 0.112 GR | 0.244 GR | 0.111 GR | 0.237 GR
9 | CC(C)Nc1cc(-c2c[nH]c(C(=O)N[C@H](CO)c3cccc(Cl)c3)c2)c(Cl)cn1 [BVD523] (max 10 µM) | 0.305 GR | 0.109 GR | 0.061 GR | 0.311 GR | 0.149 GR | 0.168 GR | -0.0171 GR | 0.218 GR | 0.174 GR | 0.218 GR | 0.0786 GR | 0.259 GR | 0.27 GR
10 | Cc1cc(Nc2ncc(Cl)c(Nc3ccccc3S(=O)(=O)C(C)C)n2)c(OC(C)C)cc1C1CCNCC1 [Ceritinib/LDK378] (max 10 µM) | 0.085 GR | 0.141 GR | 0.0682 GR | 0.184 GR | 0.199 GR | 0.503 GR | -0.229 GR | 0.242 GR | 0.119 GR | 0.131 GR | 0.413 GR | 0.215 GR | 0.285 GR
11 | NC1(C(=O)N[C@@H](CCO)c2ccc(Cl)cc2)CCN(c2nc[nH]c3nccc2-3)CC1 [AZD5363] (max 10 µM) | 0.2 GR | 0.211 GR | 0.205 GR | 0.0283 GR | 0.153 GR | -0.085 GR | 0.568 GR | 0.272 GR | 0.236 GR | 0.596 GR | 0.144 GR | 0.5 GR | 0.0834 GR
12 | CN(C)CC[C@H](CSc1ccccc1)Nc1ccc(S(=O)(=O)NC(=O)c2ccc(N3CCN(Cc4ccccc4-c4ccc(Cl)cc4)CC3)cc2)cc1[N+](=O)[O-] [ABT-737] (max 10 µM) | 0.276 GR | -0.0258 GR | 0.0543 GR | 0.0104 GR | -0.0015 GR | 0.0548 GR | -0.0268 GR | 0.492 GR | -0.0052 GR | -0.0051 GR | 0.0822 GR | -0.0157 GR | 0.102 GR
13 | O=C1NC(=NCc2cccs2)SC1=Cc1ccc2ncccc2c1 [R0-3306] (max 10 µM) | 0.142 GR | 0.12 GR | 0.406 GR | 0.115 GR | 0.0971 GR | 0.0778 GR | 0.22 GR | 0.176 GR | 0.14 GR | 0.276 GR | 0.195 GR | 0.418 GR | 0.262 GR
14 | NC(=O)Nc1cc(-c2cccc(F)c2)sc1C(=O)N[C@H]1CCCNC1 [AZD7762] (max 10 µM) | 1.02 GR | 0.601 GR | 0.338 GR | 0.225 GR | 0.909 GR | 0.694 GR | 0.0464 GR | 0.57 GR | 0.652 GR | 0.738 GR | 0.68 GR | 0.857 GR | 0.621 GR
15 | CC(=O)c1c(C)c2cnc(Nc3ccc(N4CCN(CCOCCOCCOCCNC(=O)COc5cccc6c5C(=O)N(C5CCC(=O)NC5=O)C6=O)CC4)cn3)nc2n(C2CCCC2)c1=O (stereo not drawn) [BSJ-03-123] (max 10 µM) | 0.367 GR | 0.116 GR | 0.34 GR | 0.323 GR | 0.0283 GR | 0.246 GR | 0.464 GR | 0.568 GR | 0.221 GR | 0.284 GR | 0.312 GR | 0.323 GR | 0.265 GR
16 | CC(C)NC[C@@H](C(=O)N1CCN(c2ncnc3c2[C@H](C)C[C@H]3O)CC1)c1ccc(Cl)cc1 [Ipatasertib/GDC0068] (max 10 µM) | 0.173 GR | 0.173 GR | 0.147 GR | 0.06 GR | 0.15 GR | -0.114 GR | 0.344 GR | 0.0489 GR | 0.169 GR | 0.412 GR | 0.124 GR | 0.278 GR | 0.0662 GR
17 | Nc1ccc(-c2ccc3ncc4ccc(=O)n(-c5cccc(C(F)(F)F)c5)c4c3c2)cn1 [Torin2] (max 1 µM) | 0.9 GR | 0.49 GR | 0.657 GR | 0.337 GR | 0.362 GR | 0.0743 GR | 0.604 GR | 0.749 GR | 0.473 GR | 0.737 GR | 0.486 GR | 0.441 GR | 0.362 GR
18 | Cc1nc(NC(=O)N2CCC[C@H]2C(N)=O)sc1-c1ccnc(C(C)(C)C(F)(F)F)c1 [Alpelisib/BYL719] (max 10 µM) | 0.381 GR | 0.0322 GR | 0.472 GR | 0.113 GR | 0.0534 GR | 0.063 GR | 0.468 GR | -0.103 GR | 0.351 GR | 0.33 GR | 0.116 GR | 0.023 GR | 0.174 GR
19 | O=C(CCCCCCC(=O)Nc1ccccc1)NO [Vorinostat] (max 10 µM) | 0.393 GR | 0.189 GR | 0.327 GR | 0.168 GR | 0.211 GR | 0.545 GR | 0.136 GR | 0.426 GR | 0.202 GR | 0.181 GR | 0.166 GR | 0.099 GR | 0.294 GR
20 | O=C(c1cc(Cc2n[nH]c(=O)c3ccccc23)ccc1F)N1CCN(C(=O)C2CC2)CC1 [Olaparib/AZD2281] (max 10 µM) | -0.0835 GR | 0.0657 GR | 0.0653 GR | 0.0408 GR | 0.02 GR | 0.167 GR | 0.0431 GR | 0.0197 GR | 0.127 GR | -0.0366 GR | 0.245 GR | 0.253 GR | 0.0925 GR
21 | CNC(=O)c1cccc(-c2ccc3c(N4CCOC[C@@H]4C)nc(N4CCOC[C@@H]4C)nc3n2)c1 [AZD2014] (max 10 µM) | 1.13 GR | 0.491 GR | 0.757 GR | 0.4 GR | 0.41 GR | 0.0467 GR | 1.01 GR | 0.844 GR | 0.698 GR | 0.917 GR | 0.663 GR | 0.582 GR | 0.422 GR
22 | COc1cc(N2CCN(C)CC2)ccc1Nc1ncc2c(n1)N(C)c1ccccc1C(=O)N2CC(F)(F)F [FMF-03-146-1] | 0.0144 GR | 0.0127 GR | 0.0771 GR | -0.0018 GR | -0.0674 GR | -0.0147 GR | 0.0118 GR | 0.101 GR | 0.0146 GR | 0.016 GR | 0.0401 GR | 0.163 GR | 0.0546 GR
23 | CCOc1cc2ncc(C#N)c(Nc3ccc(OCc4ccccn4)c(Cl)c3)c2cc1NC(=O)/C=C/CN(C)C [Neratinib/HKI272] (max 3.162 µM) | 1.03 GR | 0.0779 GR | 1.15 GR | 0.344 GR | 0.154 GR | 0.367 GR | 1.43 GR | 0.0652 GR | 0.453 GR | 0.568 GR | 0.364 GR | 0.142 GR | 0.238 GR
24 | Cc1nc(-c2cn3c(n2)-c2ccc(-c4cnn(C(C)(C)C(N)=O)c4)cc2OCC3)n(C(C)C)n1 [Taselisib/GDC0032] (max 10 µM) | 0.693 GR | 0.223 GR | 0.97 GR | 0.484 GR | 0.278 GR | 0.374 GR | 1.43 GR | 0.298 GR | 0.791 GR | 1.02 GR | 0.397 GR | 0.208 GR | 0.476 GR
25 | COc1ccc2c(c1)[C@]1(C[C@H]1c1ccc3c(/C=C/c4ccc(CN5C[C@@H](C)O[C@@H](C)C5)cc4)n[nH]c3c1)C(=O)N2 | 0.524 GR | 0.889 GR | 0.725 GR | 0.817 GR | 0.676 GR | 0.489 GR | 0.475 GR | 0.751 GR | 0.299 GR | 0.898 GR | 0.83 GR | 0.709 GR | 0.534 GR
26 | C=CCn1c(=O)c2cnc(Nc3ccc(N4CCN(C)CC4)cc3)nc2n1-c1cccc(C(C)(C)O)n1 [AZD1775] (max 10 µM) | 0.34 GR | 0.446 GR | 0.496 GR | 0.0857 GR | 0.73 GR | 0.483 GR | 0.387 GR | 0.615 GR | 0.579 GR | 0.502 GR | 1.02 GR | 0.886 GR | 0.355 GR

Source: the supplement of paper PMC9663587
